According to ChEMBL document CHEMBL1136538, “1,4-Dihydroxy-2,3-dioxatricyclo[8.4.0.0(4,9)]tetradecane and derivatives with in vitro activity against Plasmodium falciparum, Trypanasoma b brucei, Trypanasoma cruzi, and Leishmaniasis infantum” (Bioorg Med Chem Lett, 2003):

Experiments:
Leishmania infantum = assay: In vitro anti-protozoal parasite activity against Leishmania infantum L1 strain; assay type: functional, organism-based
MRC5 = assay: In vitro cytotoxicity against cell line MRC-5; assay type: functional, cell-based; conditions: Homo sapiens
Plasmodium falciparum = assay: In vitro anti-protozoal activity against Plasmodium falciparum Ghana; assay type: functional, organism-based
Trypanosoma brucei = assay: In vitro anti-protozoal parasite activity against Trypanosoma brucei TB-1; assay type: functional, organism-based
Trypanosoma cruzi = assay: In vitro anti-protozoal parasite activity against Trypanosoma cruzi TC-1; assay type: functional, organism-based

SMILES | IC50 (Leishmania infantum) | IC50 (MRC5) | IC50 (Plasmodium falciparum) | IC50 (Trypanosoma brucei) | IC50 (Trypanosoma cruzi)
O=C(O)CCC(=O)OC12CCCCC1C1CCCCC1(O)OO2 (stereo unspecified) | > 32 µM | 13 µM | 1 µM | 4 µM | 13 µM
O=C(O)CCCC(=O)OC12CCCCC1C1CCCCC1(O)OO2 (stereo unspecified) | > 32 µM | > 32 µM | 19 µM | 16 µM | 15 µM
CC1CCCC2C3CCCC(C)C3(O)OOC12O (stereo unspecified) | > 32 µM | > 32 µM | > 32 µM | – | > 32 µM
OC12CCCCC1C1CCCCC1(O)OO2 (stereo unspecified) | > 32 µM | 10 µM | 0.1 µM | 13 µM | 24 µM
COC12CCCCC1C1CCCCC1(O)OO2 (stereo unspecified) | > 32 µM | 8 µM | 5 µM | 16 µM | 8 µM
O=C(O)CC(=O)OC12CCCCC1C1CCCCC1(O)OO2 (stereo unspecified) | > 32 µM | > 32 µM | 6 µM | 10 µM | > 32 µM
O=C(O)CCCCC(=O)OC12CCCCC1C1CCCCC1(O)OO2 (stereo unspecified) | > 32 µM | > 32 µM | > 32 µM | 17 µM | 19 µM
CO[C@H]1O[C@@H]2O[C@@]3(C)CC[C@H]4[C@H](C)CC[C@@H]([C@H]1C)[C@@]24OO3 [ARTEMETHER] | – | – | 0.025 µM | – | –
Cc1ccc(C(=O)Nc2ccc(S(=O)(=O)O)c3cc(S(=O)(=O)O)cc(S(=O)(=O)O)c23)cc1NC(=O)c1cccc(NC(=O)Nc2cccc(C(=O)Nc3cc(C(=O)Nc4ccc(S(=O)(=O)O)c5cc(S(=O)(=O)O)cc(S(=O)(=O)O)c45)ccc3C)c2)c1 [SURAMIN HEXASODIUM] | – | – | – | 0.043 µM | –
